In patent publication US20240034731A1, “AZA-QUINAZOLINE COMPOUNDS AND METHODS OF USE” (Iambic Therapeutics, Inc., priority 2022, published 2024):

How the values were obtained:
[1] = target: CDK4/Cyclin D1 (Homo sapiens (Human), UniProt P11802); experiment: CDK4/Cyclin D1 CHEF Assay (AQT0258 peptide); assay type: biochemical; conditions: 200 uM ATP, read-out: CDK4/ CyclinD1 AQT IC50
In short: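 Sox-labelled peptide AQT0258 phosphorylation read as chelation-enhanced fluorescence (ex 360/em 485 nm) with Mg(II). Enzyme preincubated with inhibitor 30 min at 22°C, substrate added, 3 h at 22°C; IC50 from four-parameter fit of fractional velocity versus inhibitor concentration.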

[2] = target: CDK6/Cyclin D3 (Homo sapiens (Human), UniProt Q00534); experiment: CDK6/Cyclin D3 ADP-Glo Kinase Assay; assay type: biochemical; conditions: 100 uM ATP, read-out: CDK6/ CyclinD3 IC50
Chain of CDK6/Cyclin D3 (Q00534 whole entry): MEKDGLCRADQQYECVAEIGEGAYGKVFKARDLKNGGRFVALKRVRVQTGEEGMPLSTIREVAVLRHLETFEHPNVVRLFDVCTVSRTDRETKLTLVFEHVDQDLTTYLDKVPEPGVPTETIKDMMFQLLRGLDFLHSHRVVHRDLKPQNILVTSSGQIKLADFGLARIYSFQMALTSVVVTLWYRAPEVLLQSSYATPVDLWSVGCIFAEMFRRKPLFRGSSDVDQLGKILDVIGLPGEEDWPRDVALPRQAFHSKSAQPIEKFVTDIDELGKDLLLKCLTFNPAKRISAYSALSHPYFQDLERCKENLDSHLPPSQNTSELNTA
Chain of CDK6/Cyclin D3 (P30281 whole entry partner): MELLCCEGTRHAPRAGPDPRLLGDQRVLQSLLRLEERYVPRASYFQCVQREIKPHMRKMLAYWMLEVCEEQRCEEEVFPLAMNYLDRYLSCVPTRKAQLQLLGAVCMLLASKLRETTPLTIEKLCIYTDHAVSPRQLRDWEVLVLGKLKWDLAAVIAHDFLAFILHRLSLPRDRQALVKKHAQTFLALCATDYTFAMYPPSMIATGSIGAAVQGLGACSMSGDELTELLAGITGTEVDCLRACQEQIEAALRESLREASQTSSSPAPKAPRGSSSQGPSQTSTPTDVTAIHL
In short: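 ADP-Glo luminescence measured ADP produced by CDK6/Cyclin D3 in a 90-min room-temperature reaction started with ATP-containing substrate, after 30-min enzyme–inhibitor pre-incubation. Fractional velocity was plotted against inhibitor concentration and fitted to a four-parameter IC50 model.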

[3] = tested on: OVCAR-3 cells; experiment: Cell Growth Inhibition, OVCAR-3 (CellTiterGlo, 6 days); assay type: cell-based; conditions: Homo sapiens, 144 h, OVCAR-3, 6-day treatment
In short: (§1)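 IC50 from four-parameter, variable-slope fits of % growth inhibition, derived from CellTiterGlo 2.0 luminescence relative to control. Compounds, usually 10-10,000 nM in half-log steps, stayed 6 days at 37 °C, 5% CO2 with 500 MCF-7 or OVCAR-3 cells/well in 10% FBS RPMI.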

[4] = target: CDK2/Cyclin E1 (Homo sapiens (Human), UniProt P24941); experiment: CDK2/Cyclin E1 Full length ADP-Glo Kinase Assay; assay type: biochemical; conditions: 20 uM ATP, read-out: CDK2/ CyclinE1 IC50
In short: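 ADP-Glo luminescence (ATP depletion, then ADP-to-light conversion) quantified kinase turnover after a 90 min room-temperature reaction started by ATP/substrate, following 30 min enzyme–inhibitor preincubation. Enzyme: full-length CDK2/cyclin E1; IC50 fitted with a four-parameter equation on fractional velocity.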

[5] = target: CDK1/Cyclin B1 (Homo sapiens (Human), UniProt P06493); experiment: CDK1/Cyclin B1 ADP-Glo Kinase Assay; assay type: biochemical; conditions: ADP-Glo, 80 uM ATP; read-out: CDK1 Cyclin B1 IC50
Chain of CDK1/Cyclin B1 (P06493 whole entry): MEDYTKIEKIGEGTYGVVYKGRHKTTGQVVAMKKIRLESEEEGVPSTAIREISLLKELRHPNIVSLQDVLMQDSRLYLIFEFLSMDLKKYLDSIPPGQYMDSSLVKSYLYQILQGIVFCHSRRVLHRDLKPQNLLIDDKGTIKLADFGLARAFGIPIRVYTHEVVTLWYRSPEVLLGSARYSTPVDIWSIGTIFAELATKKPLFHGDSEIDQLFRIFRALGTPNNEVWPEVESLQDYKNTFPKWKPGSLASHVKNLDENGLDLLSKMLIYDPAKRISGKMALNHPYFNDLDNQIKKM
Chain of CDK1/Cyclin B1 (P14635 whole entry partner): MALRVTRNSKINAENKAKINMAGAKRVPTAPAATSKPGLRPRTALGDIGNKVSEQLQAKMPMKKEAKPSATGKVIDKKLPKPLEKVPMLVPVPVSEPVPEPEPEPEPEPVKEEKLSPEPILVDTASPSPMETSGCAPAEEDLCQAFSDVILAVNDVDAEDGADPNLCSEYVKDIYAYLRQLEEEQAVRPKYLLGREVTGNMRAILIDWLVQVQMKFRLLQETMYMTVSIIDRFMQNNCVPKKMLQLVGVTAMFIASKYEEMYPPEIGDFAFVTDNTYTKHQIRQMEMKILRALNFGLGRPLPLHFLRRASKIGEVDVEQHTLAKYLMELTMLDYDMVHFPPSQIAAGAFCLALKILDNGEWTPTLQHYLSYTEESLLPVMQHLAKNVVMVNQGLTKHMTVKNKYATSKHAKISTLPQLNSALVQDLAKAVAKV
In short: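 ADP-Glo luminescent readout of ADP production, with IC50 fitted by a four-parameter equation to fractional velocity against inhibitor concentration. Reaction started with ATP-containing substrate after a 30-minute enzyme–inhibitor pre-incubation and stopped after 90 minutes, both at room temperature.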

[6] = tested on: MCF-7 cells; experiment: Cell Growth Inhibition, MCF-7 (CellTiterGlo, 6 days); assay type: cell-based; conditions: Homo sapiens, MCF7, 144 h, MCF-7, 6-day treatment
In short: as §1

Chain of CDK4/Cyclin D1 (P11802 whole entry): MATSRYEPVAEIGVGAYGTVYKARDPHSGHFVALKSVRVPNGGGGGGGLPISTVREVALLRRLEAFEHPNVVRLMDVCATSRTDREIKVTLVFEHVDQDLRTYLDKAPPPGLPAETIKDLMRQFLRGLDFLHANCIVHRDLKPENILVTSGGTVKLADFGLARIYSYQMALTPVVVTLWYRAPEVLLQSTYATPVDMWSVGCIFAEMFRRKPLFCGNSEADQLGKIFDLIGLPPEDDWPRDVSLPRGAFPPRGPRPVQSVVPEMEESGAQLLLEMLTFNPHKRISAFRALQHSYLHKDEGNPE
Chain of CDK4/Cyclin D1 (P24385 whole entry partner): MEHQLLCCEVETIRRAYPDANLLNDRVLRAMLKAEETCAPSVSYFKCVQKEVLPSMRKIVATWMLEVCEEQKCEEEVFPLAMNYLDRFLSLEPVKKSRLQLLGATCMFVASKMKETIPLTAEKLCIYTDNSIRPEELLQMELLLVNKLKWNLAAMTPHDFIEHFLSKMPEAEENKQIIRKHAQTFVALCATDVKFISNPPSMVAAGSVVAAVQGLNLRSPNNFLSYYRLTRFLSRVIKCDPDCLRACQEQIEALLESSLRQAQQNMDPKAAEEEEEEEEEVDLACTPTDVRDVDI

| Structure (SMILES) | IC50 [1] | IC50 [2] | IC50 [3] | IC50 [4] | IC50 [5] | IC50 [6] |
| --- | --- | --- | --- | --- | --- | --- |
| Cc1cc2cnc(Nc3cnn(C4CN(CC#N)C4)c3)nc2c(N2CC3(CN(C)C3)C2)n1 [Compound 31, 2-(3-(4-((6-methyl-8-(6-methyl-2,6-diazaspiro[3.3]heptan-2-yl)pyrido[3,4-d]pyrimidin-2-yl)amino)-1H-pyrazol-1-yl)azetidin-1-yl)acetonitrile] | > 2000 nM | > 2000 nM | > 2000 nM | < 200 nM | > 2000 nM | > 2000 nM |
| Cc1cc2cnc(Nc3cnn(CC4(N(C)C)CC4)c3)nc2c(N2CCC3(C2)CC3(F)F)n1 (stereo not drawn) [Compound 36, 8-(1,1-difluoro-5-azaspiro[2.4]heptan-5-yl)-N-(1-((1-(dimethylamino)cyclopropyl)methyl)-1H-pyrazol-4-yl)-6-methylpyrido[3,4-d]pyrimidin-2-amine] | 200 to 500 nM | 500 to 2000 nM | > 2000 nM | 200 to 500 nM | > 2000 nM | > 2000 nM |
| Cc1cc2cnc(Nc3ccc4c(c3)CN(C3CN(S(C)(=O)=O)C3)C4)nc2c(N2CC3(CN(C)C3)C2)n1 [Compound 29, 6-methyl-8-(6-methyl-2,6-diazaspiro[3.3]heptan-2-yl)-N-(2-(1-(methylsulfonyl)azetidin-3-yl)isoindolin-5-yl)pyrido[3,4-d]pyrimidin-2-amine] | < 200 nM | 500 to 2000 nM | > 2000 nM | 200 to 500 nM | > 2000 nM | > 2000 nM |
| Cc1cc2cnc(NC3CCN(S(=O)(=O)C4CC4)CC3)nc2c(N2CC(O)(C3CC3)C2)n1 [Compound 56, 3-cyclopropyl-1-(2-((1-(cyclopropylsulfonyl)piperidin-4-yl)amino)-6-methylpyrido[3,4-d]pyrimidin-8-yl)azetidin-3-ol] | < 200 nM | < 200 nM | 500 to 2000 nM | < 200 nM | < 200 nM | 500 to 2000 nM |
| Cc1cc2cnc(NC3CC4CC3CN4C)nc2c(N2CCC3(C2)CC3(F)F)n1 (stereo not drawn) [Compound 43, 8-(1,1-difluoro-5-azaspiro[2.4]heptan-5-yl)-6-methyl-N-(2-methyl-2-azabicyclo[2.2.1]heptan-5-yl)pyrido[3,4-d]pyrimidin-2-amine] | < 200 nM | 200 to 500 nM | 500 to 2000 nM | 500 to 2000 nM | > 2000 nM | 500 to 2000 nM |
| Cc1cc2cnc(NC3CCN(S(=O)(=O)C4CC4)CC3)nc2c(N2CC(N3CC(F)C3)C2)n1 [Compound 72, N-(1-(cyclopropylsulfonyl)piperidin-4-yl)-8-(3-fluoro-[1,3′-biazetidin]-l′-yl)-6-methylpyrido[3,4-d]pyrimidin-2-amine] | 200 to 500 nM | 200 to 500 nM | > 2000 nM | < 200 nM | 500 to 2000 nM | > 2000 nM |
| Cc1cc2cnc(NC3CCN(S(=O)(=O)c4cnn(C)c4)CC3)nc2c(N2CC(F)(F)C3(CNC3)C2)n1 [Compound 89, 8-(8,8-difluoro-2,6-diazaspiro[3.4]octan-6-yl)-6-methyl-N-(1-((1-methyl-1H-pyrazol-4-yl)sulfonyl)piperidin-4-yl)pyrido[3,4-d]pyrimidin-2-amine] | < 200 nM | < 200 nM | 200 to 500 nM | < 200 nM | < 200 nM | 500 to 2000 nM |
| Cc1cc2cnc(NC3CCN(S(=O)(=O)C4(C)CC4)CC3)nc2c(C2CC(C)(O)C2)n1 (stereo not drawn) [Compound 63, 1-methyl-3-(6-methyl-2-((1-((1-methylcyclopropyl)sulfonyl)piperidin-4-yl)amino)pyrido[3,4-d]pyrimidin-8-yl)cyclobutan-1-ol] | 500 to 2000 nM | > 2000 nM | > 2000 nM | 200 to 500 nM | > 2000 nM | > 2000 nM |
| COCCN1CC2(C1)CN(c1nc(C3CC3)cc3cnc(NC4CCN(S(=O)(=O)CC5CCC5)CC4)nc13)C2 [Compound 64, N-(1-((cyclobutylmethyl)sulfonyl)piperidin-4-yl)-6-cyclopropyl-8-(6-(2-methoxyethyl)-2,6-diazaspiro[3.3]heptan-2-yl)pyrido[3,4-d]pyrimidin-2-amine] | < 200 nM | 200 to 500 nM | > 2000 nM | < 200 nM | 500 to 2000 nM | > 2000 nM |
| Cc1cc2cnc(NC3CCN(S(=O)(=O)C4CC4)CC3)nc2c(N2CC(F)(F)C3(CNC3)C2)n1 [Example 62, N-(1-(cyclopropylsulfonyl)piperidin-4-yl)-8-(8,8-difluoro-2,6-diazaspiro[3.4]octan-6-yl)-6-methylpyrido[3,4-d]pyrimidin-2-amine] | < 200 nM | < 200 nM | 500 to 2000 nM | < 200 nM | < 200 nM | 500 to 2000 nM |

Next, values leading:

| IC50 [1] | IC50 [2] | IC50 [3] | IC50 [4] | IC50 [5] | IC50 [6] | Structure (SMILES) |
| --- | --- | --- | --- | --- | --- | --- |
| < 200 nM | < 200 nM | 500 to 2000 nM | < 200 nM | < 200 nM | > 2000 nM | Cc1cc2cnc(NC3CCN(S(C)(=O)=O)CC3)nc2c(N2CCC3(CCC3(F)F)C2)n1 (stereo not drawn) [Compound 52, 8-(1,1-difluoro-6-azaspiro[3.4]octan-6-yl)-6-methyl-N-(1-(methylsulfonyl)piperidin-4-yl)pyrido[3,4-d]pyrimidin-2-amine] |
| < 200 nM | < 200 nM | > 2000 nM | < 200 nM | 200 to 500 nM | > 2000 nM | Cc1cc2cnc(Nc3ccc(CS(C)(=O)=O)cc3)nc2c(N2CC(O)(C3CC3)C2)n1 [Compound 83, 3-cyclopropyl-1-(6-methyl-2-((4-((methylsulfonyl)methyl)phenyl)amino)pyrido[3,4-d]pyrimidin-8-yl)azetidin-3-ol] |
| < 200 nM | < 200 nM | > 2000 nM | < 200 nM | 500 to 2000 nM | > 2000 nM | COCCN1CC2(CC(c3nc(C4CC4)cc4cnc(NC5CCN(S(=O)(=O)CC6CCC6)CC5)nc34)C2)C1 [Compound 80, N-(1-((cyclobutylmethyl)sulfonyl)piperidin-4-yl)-6-cyclopropyl-8-(2-(2-methoxyethyl)-2-azaspiro[3.3]heptan-6-yl)pyrido[3,4-d]pyrimidin-2-amine] |
| < 200 nM | < 200 nM | 500 to 2000 nM | < 200 nM | < 200 nM | 200 to 500 nM | Cc1cc2cnc(NC3CCN(S(C)(=O)=O)CC3)nc2c(N2CC(F)(F)C3(CN(C)C3)C2)n1 [Compound 96, 8-(8,8-difluoro-2-methyl-2,6-diazaspiro[3.4]octan-6-yl)-6-methyl-N-(1-(methylsulfonyl)piperidin-4-yl)pyrido[3,4-d]pyrimidin-2-amine] |
| < 200 nM | < 200 nM | > 2000 nM | < 200 nM | > 2000 nM | > 2000 nM | COC1CC2(C1)CN(c1nc(C3CC3)cc3cnc(NC4CCN(S(C)(=O)=O)CC4)nc13)C2 [Compound 75, 6-cyclopropyl-8-(6-methoxy-2-azaspiro[3.3]heptan-2-yl)-N-(1-(methylsulfonyl)piperidin-4-yl)pyrido[3,4-d]pyrimidin-2-amine] |
| < 200 nM | < 200 nM | > 2000 nM | < 200 nM | < 200 nM | 500 to 2000 nM | CS(=O)(=O)N1CCC(Nc2ncc3cc(C4CC4)nc(N4CC(F)(F)C5(CNC5)C4)c3n2)CC1 [Example 60, 6-cyclopropyl-8-(8,8-difluoro-2,6-diazaspiro[3.4]octan-6-yl)-N-(1-(methylsulfonyl)piperidin-4-yl)pyrido[3,4-d]pyrimidin-2-amine] |
| < 200 nM | < 200 nM | 500 to 2000 nM | < 200 nM | < 200 nM | 500 to 2000 nM | Cc1cc2cnc(NC3CCN(S(C)(=O)=O)CC3)nc2c(N2CC(F)(F)C3(CNC3)C2)n1 [Compound 92, 8-(8,8-difluoro-2,6-diazaspiro[3.4]octan-6-yl)-6-methyl-N-(1-(methylsulfonyl)piperidin-4-yl)pyrido[3,4-d]pyrimidin-2-amine] |
| < 200 nM | < 200 nM | 500 to 2000 nM | < 200 nM | 500 to 2000 nM | 500 to 2000 nM | FC(F)c1cc2cnc(Nc3ccc4c(c3)CN(C3CC3)C4)nc2c(N2CC3(CCNC3)C2)n1 [Compound 50, N-(2-cyclopropylisoindolin-5-yl)-6-(difluoromethyl)-8-(2,6-diazaspiro[3.4]octan-2-yl)pyrido[3,4-d]pyrimidin-2-amine] |
| < 200 nM | < 200 nM | 500 to 2000 nM | < 200 nM | 500 to 2000 nM | 500 to 2000 nM | Cc1cc2cnc(NC3CCN(S(=O)(=O)C4CC4)CC3)nc2c(N2CC3(CNC3)C2)n1 [Compound 32, N-(1-(cyclopropylsulfonyl)piperidin-4-yl)-6-methyl-8-(2,6-diazaspiro[3.3]heptan-2-yl)pyrido[3,4-d]pyrimidin-2-amine] |
